In patent US9815851B2, “Pyrrolo carboxamides as modulators of orphan nuclear receptor RAR-related orphan receptor-gamma (RORγ, NR1F3) activity and for the treatment of chronic inflammatory and autoimmune diseases” (PHENEX PHARMACEUTICALS AG, priority 2011, dated 2017):
Like-named read-outs stand apart in the source and are kept apart here.

What was measured:
[1] = molecular target: T1, RORγ ligand binding domain (LBD) (Homo sapiens, UniProt P51449); assay: TR-FRET Activity Assay (ligand sensing, RORγ-LBD / coactivator peptide interaction, LANCE); format: biochemical
T1 construct: made in house; host or cells: E. coli BL-21 (BL3), vector pDEST15
T1 sequence (P51449 269-508 limits assumed): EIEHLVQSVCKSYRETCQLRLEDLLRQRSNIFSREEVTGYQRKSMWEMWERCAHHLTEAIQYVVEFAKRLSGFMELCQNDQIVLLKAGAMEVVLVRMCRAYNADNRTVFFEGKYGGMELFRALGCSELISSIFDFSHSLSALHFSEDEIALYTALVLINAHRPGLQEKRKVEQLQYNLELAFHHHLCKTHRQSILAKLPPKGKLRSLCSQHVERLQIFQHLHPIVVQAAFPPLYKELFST

RORγ = molecular target: T2, RORγ (UniProt P51449); assay: RORγ Gal4 Reporter Gene Assay in 293T cells (firefly and renilla luciferase); format: cell-based, human
T2 sequence (P51449 1-518): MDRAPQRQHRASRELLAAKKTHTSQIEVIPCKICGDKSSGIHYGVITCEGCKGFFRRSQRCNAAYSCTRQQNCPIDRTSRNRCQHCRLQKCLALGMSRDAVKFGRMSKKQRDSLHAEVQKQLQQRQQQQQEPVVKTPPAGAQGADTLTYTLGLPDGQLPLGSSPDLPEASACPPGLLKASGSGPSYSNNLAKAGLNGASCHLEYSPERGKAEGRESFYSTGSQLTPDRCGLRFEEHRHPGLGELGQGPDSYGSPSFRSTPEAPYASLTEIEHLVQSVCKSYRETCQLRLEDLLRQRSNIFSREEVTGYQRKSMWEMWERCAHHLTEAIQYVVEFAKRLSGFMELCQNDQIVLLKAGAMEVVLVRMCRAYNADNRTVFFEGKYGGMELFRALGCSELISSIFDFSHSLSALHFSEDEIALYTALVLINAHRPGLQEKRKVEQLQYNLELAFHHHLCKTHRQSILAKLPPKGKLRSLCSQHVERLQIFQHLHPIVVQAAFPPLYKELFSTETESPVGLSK

[2] = first value of the cell FRET/FF/REN, TR-FRET activity assay, read-out: pIC50 (FRET) (converted)
[3] = second value of the cell, Gal4 reporter gene assay in 293T cells, firefly luciferase
[4] = third value of the cell, Gal4 reporter gene assay in 293T cells, renilla normalised luciferase

Structure (SMILES) | IC50 [1, 2] | pIC50 (FF) (RORγ; [3]) | pIC50 (REN) (RORγ; [4]) | IC50 [1] | pIC50 (FF) (RORγ) | pIC50 (REN) (RORγ)
Cc1c(C(=O)NCCC(C)(C)C(=O)O)cc(-c2cc(C(C)(C)O)cc(C(F)(F)F)c2)n1CC1CCCCC1 [17/308] | 6310 nM | 6.5 | 6.4 | – | – | –
Cc1c(C(=O)NC2CCOCC2)cc(-c2ccc(CC(=O)NC(C)(C)C)c(C(F)(F)F)c2)n1CC1CCCCC1 [17/131] | 501 nM | 6.8 | 6.9 | – | – | –
Cc1c(C(=O)NCCC(C)(C)C(=O)O)cc(-c2ccc(S(=O)(=O)NC(C)(C)C)c(OC(F)(F)F)c2)n1CC1CCCCC1 [17/172] | 398 nM | 7.5 | 7.5 | – | – | –
Cc1c(C(=O)NCC2CCOCC2)cc(-c2cc(C(C)(C)C)c3c(c2)C2(CCO3)CC2)n1CC1CCCCC1 [1/94] | 501 nM | 7.4 | 7.3 | – | – | –
Cc1c(C(=O)NCC(C)(C)O)cc(-c2cc(C(C)(C)O)cc(C3(C)CC3)c2)n1CC1CCCCC1 [17/313] | – | – | – | 1000 nM | 6.0/6.8/6.8 | 6.0/6.8/6.8
Cc1c(C(=O)NC2CCOCC2)cc(-c2cc(C(=O)NC(C)(C)C)cc(C(=O)NC(C)(C)C)c2)n1CC1CCCCC1 [17/75] | – | – | – | 6310 nM | 5.2/5.8/5.8 | 5.2/5.8/5.8
Cc1c(C(=O)NC2CCOCC2)cc(-c2cc(S(=O)(=O)N3CCCCC3)c3ccccn23)n1CC1CCCCC1 [17/96] | 3160 nM | 6.9 | 7.0 | – | – | –
COC(=O)C(C)(C)CCNC(=O)c1cc(-c2cc(C(C)(C)C)cc(C3(C)CC3)c2)n(CC2CCCCC2)c1F [20/4] | 200 nM | 6.9 | 6.9 | – | – | –
Cc1c(C(=O)NCC(C)(C)O)cc(-c2cc(C(C)(C)C)c3c(c2)C(C)(C)CO3)n1CC1CCCCC1 [17/86] | 316 nM | 7.1 | 7.1 | – | – | –
Cc1c(C(=O)NC2CCOCC2)cc(-c2ccc(S(=O)(=O)NC(C)(C)C(F)(F)F)c(C(F)(F)F)c2)n1CC1CCCCC1 [17/160] | – | – | – | 200 nM | 6.7/7.8/8.0 | 6.7/7.8/8.0
Cc1c(C(=O)NCCC(C)(C)C(=O)O)cc(-c2ccc(S(=O)(=O)N[C@@H](C)C(F)(F)F)c(C(C)(C)C)c2)n1CC1CCCCC1 [17/152] | 1000 nM | 8.2 | 8.2 | – | – | –
Cc1c(C(=O)NCC(C)(C)O)cc(-c2cc(C(C)(C)C)cc(C(C)(C)C)c2OC(F)F)n1CC1CCCCC1 [17/191] | – | – | – | 1260 nM | 5.9/7.0/6.9 | 5.9/7.0/6.9
Cc1c(C(=O)NC2CCOCC2)cc(-c2cc(Cl)cc(C3(C)CC3)c2)n1CC1CCCCC1 [17/296] | 251 nM | 7.0 | 7.1 | – | – | –
COC1CN(C(=O)c2cc(-c3cc(C(C)(C)C)cc(C(C)(C)C)c3)n(CC3CCCCC3)c2C)C1 [1/8] | – | – | – | 316 nM | 6.5/6.4/6.3 | 6.5/6.4/6.3
Cc1c(C(=O)N[C@H]2C[C@H](C(=O)O)C2)cc(-c2ccc(-c3ccnn3C(C)C)c(C(C)(C)C)c2)n1CC1CCCCC1 [26/5] | 316 nM | 7.9 | 8.0 | – | – | –
Cc1c(C(=O)NCC(C)(C)O)cc(-c2cc(C(C)(C)C)nc(C3(C)CC3)n2)n1CC1CCCCC1 [17/356] | 398 nM | 6.7 | 6.7 | – | – | –
Cc1c(C(=O)NCC2(O)CCS(=O)(=O)CC2)cc(-c2cc(C(C)(C)O)cc(C3(C)CC3)c2)n1CC1CCCCC1 [17/319] | 2000 nM | 6.5 | 6.6 | – | – | –
Cc1c(C(=O)NCC(C)(C)C(N)=O)cc(-c2ccc(S(=O)(=O)NC(C)(C)C)c(C(F)(F)F)c2)n1CC1CCCCC1 [17/202] | 316 nM | 7.7 | 7.7 | – | – | –
Cc1c(C(=O)NCC(C)(C)c2nnn[nH]2)cc(-c2cc(C(C)(C)O)cc(C3(C)CC3)c2)n1CC1CCCCC1 [17/309] | – | – | – | 794 nM | 6.1/6.7/6.8 | 6.1/6.7/6.8
Cc1c(C(=O)NCC2(O)CCOCC2)cc(-c2ccc(S(=O)(=O)NC(C)(C)C)c(C(F)F)c2)n1CC1CCCCC1 [17/129] | – | – | – | 200 nM | 6.7/8.0/8.0 | 6.7/8.0/8.0
Cc1c(C(=O)NC2COC2)cc(-c2cc(C(=O)NC(C)C)cc(C(C)(C)C)c2)n1CC1CCCCC1 [15/6] | 1260 nM | 7.4 | 7.4 | – | – | –

Structure (SMILES) | IC50 [1, 2] | pIC50 (FF) (RORγ; [3]) | pIC50 (REN) (RORγ; [4]) | IC50 [1] | pIC50 (FF) (RORγ) | pIC50 (REN) (RORγ)
Cc1c(C(=O)N2CCCC(C)(C(=O)O)C2)cc(-c2ccc(S(=O)(=O)NC(C)(C)C)c(C(F)(F)F)c2)n1CC1CCCCC1 (stereo not drawn) [17/225] | 794 nM | 7.6 | 7.6 | – | – | –
Cc1c(C(=O)NC2CCOCC2)cc(-c2ccc(S(=O)(=O)NC(C)(C)C)c(C(F)(F)F)c2)n1CC1CCC(F)(F)CC1 [17/256] | 631 nM | 6.8 | 7.0 | – | – | –
Cc1c(C(=O)NC2CCOCC2)cc(-c2cc3c(c(C(C)(C)C)c2)OCCC3=O)n1CC1CCCCC1 [17/104] | 501 nM | 6.5 | 6.7 | – | – | –
Cc1c(C(=O)NCC(C)(C)NC(=O)C(C)O)cc(-c2cc(C(C)(C)C)cc(C3(C)CC3)c2)n1CC1CCCCC1 (stereo not drawn) [17/121] | 316 nM | 7.6 | 7.7 | – | – | –
Cc1c(C(=O)NCC2(C(N)=O)CCOCC2)cc(-c2cc(C(C)(C)C)c3c(c2)C2(CCO3)CC2)n1CC1CCCCC1 [17/41] | 398 nM | 8.1 | 8.2 | – | – | –
Cc1c(C(=O)NC2COC2)cc(-c2ccc(C(=O)N(C)CC(C)(C)C)c(C(C)(C)C)c2)n1CC1CCCCC1 [1/33] | 794 nM | 6.6 | 6.5 | – | – | –
Cc1c(C(=O)NCC2(O)CCOCC2)cc(-c2cc(C(=O)NC(C)(C)C)cc(C3(C)CC3)c2)n1CC1CCCCC1 [17/341] | – | – | – | 794 nM | 6.1/7.4/7.6 | 6.1/7.4/7.6
Cc1c(C(=O)NC2COC2)cc(-c2cnc(NCC(C)(C)C)c(C(F)(F)F)c2)n1CC1CCCCC1 [9/12] | 1580 nM | 6.3 | 6.5 | – | – | –
Cc1c(C(=O)NC2COC2)cc(-c2cc(OCC(C)C)nc(C(C)(C)C)c2)n1CC1CCCCC1 [1/121] | – | – | – | 126 nM | 6.9/7.0/7.2 | 6.9/7.0/7.2
Cc1c(C(=O)NC2CC(C)(O)C2)cc(-c2cc(C(C)(C)C)c3c(c2)C2(CCO3)CC2)n1CC1CCCCC1 (stereo not drawn) [17/22] | 1000 nM | 6.5 | 6.6 | – | – | –
CCc1cc(-c2cc(C(N)=O)c(C)n2CC2CCCCC2)cc2c1OCC2(C)C [1/50] | 1580 nM | 6.0 | 6.1 | – | – | –
Cc1c(C(=O)NC2COC2)cc(-c2cc(C(C)(C)C)cc(C(C)(C)C)c2)n1S(=O)(=O)N1CCCC(C)C1 (stereo not drawn) [7/2] | – | – | – | 251 nM | 6.6/7.0/7.0 | 6.6/7.0/7.0
Cc1c(C(=O)NC2COC2)cc(-c2cc(C(C)(C)C)cc(C(C)(C)C)c2)n1S(=O)(=O)N1CCC(C)CC1 [7/1] | 316 nM | 6.7 | 6.8 | – | – | –
Cc1c(C(=O)N[C@H]2C[C@H](C(=O)O)C2)cc(-c2cc(C(C)(C)C)cc(C(=O)NC(C)(C)C)c2Cl)n1CC1CCCCC1 [17/368] | 7940 nM | 6.4 | 6.2 | – | – | –
Cc1c(C(=O)NC2CCOCC2)cc(-c2ccc(S(=O)(=O)NC(C)(C)C)c(C(F)(F)F)c2)n1[C@@H](C)C1CCCCC1 [17/253] | 631 nM | 7.0 | 7.2 | – | – | –
CCNC(=O)NC(C)(C)CNC(=O)c1cc(-c2cc(C(C)(C)C)c3c(c2)C2(CCO3)CC2)n(CC2CCCCC2)c1C [17/120] | 2510 nM | 6.1 | 6.0 | – | – | –
Cc1c(C(=O)N2CC(CC(=O)O)C2)cc(-c2ccc(S(=O)(=O)NC(C)(C)C)c(C(F)(F)F)c2)n1CC1CCCCC1 [17/179] | 398 nM | 6.1 | 6.1 | – | – | –
Cc1c(C(=O)NC2CCOCC2)cc(-c2ccc(S(=O)(=O)NC(C)(C)C)c(C(F)(F)F)c2Cl)n1CC1CCCCC1 [17/288] | 398 nM | 7.3 | 7.3 | – | – | –
Cc1c(C(=O)NCCCCCO)cc(-c2cc(C(C)(C)C)cc(C(C)(C)C)c2)n1CC1CCCCC1 [1/67] | 158 nM | 7.2 | 7.3 | – | – | –
Cc1c(C(=O)N[C@H]2C[C@H](C(=O)O)C2)cc(-c2cc(C(=O)NC(C)(C)C)nc(C3(C)CC3)n2)n1CC1CCCCC1 [17/372] | 3160 nM | 6.3 | 6.2 | – | – | –
Cc1c(C(=O)NCC(C)(C)O)cc(-c2cc(C(C)(C)C)c3c(c2)C2(CCO3)CC2)n1CC1CCCCC1 [1/39] | – | – | – | 316 nM | 6.5/6.9/7.0 | 6.5/6.9/7.0
